Legend:
[1] = target: T1, 5-hydroxytryptamine receptor 1A (Rattus norvegicus, UniProt P19327); assay: Compound was measured for the inhibition of [3H]8-OH-DPAT binding to rat hippocampus membrane (5-HT1A receptor); type: tissue-based
T1 sequence (P19327 whole entry): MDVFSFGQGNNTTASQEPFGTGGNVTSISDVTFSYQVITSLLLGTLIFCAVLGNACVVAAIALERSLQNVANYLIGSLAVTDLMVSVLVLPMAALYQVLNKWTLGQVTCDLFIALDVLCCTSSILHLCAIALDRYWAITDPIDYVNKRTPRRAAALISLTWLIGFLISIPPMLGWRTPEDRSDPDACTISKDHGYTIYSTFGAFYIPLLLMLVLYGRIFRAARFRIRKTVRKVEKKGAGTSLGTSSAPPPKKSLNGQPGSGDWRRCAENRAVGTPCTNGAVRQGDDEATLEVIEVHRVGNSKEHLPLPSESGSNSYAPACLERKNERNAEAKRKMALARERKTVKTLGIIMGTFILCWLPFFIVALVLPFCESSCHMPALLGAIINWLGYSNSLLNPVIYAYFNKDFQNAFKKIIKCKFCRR

D(3) dopamine receptor = D(3) dopamine receptor (Homo sapiens, UniProt P35462); assay: Compound was measured for the binding affinity in chinese hamster ovary (CHO) cells transfected with human Dopamine receptor D3 using [3H]raclopride as radioligand; type: cell-based
D(3) dopamine receptor, sequence (P35462 whole entry): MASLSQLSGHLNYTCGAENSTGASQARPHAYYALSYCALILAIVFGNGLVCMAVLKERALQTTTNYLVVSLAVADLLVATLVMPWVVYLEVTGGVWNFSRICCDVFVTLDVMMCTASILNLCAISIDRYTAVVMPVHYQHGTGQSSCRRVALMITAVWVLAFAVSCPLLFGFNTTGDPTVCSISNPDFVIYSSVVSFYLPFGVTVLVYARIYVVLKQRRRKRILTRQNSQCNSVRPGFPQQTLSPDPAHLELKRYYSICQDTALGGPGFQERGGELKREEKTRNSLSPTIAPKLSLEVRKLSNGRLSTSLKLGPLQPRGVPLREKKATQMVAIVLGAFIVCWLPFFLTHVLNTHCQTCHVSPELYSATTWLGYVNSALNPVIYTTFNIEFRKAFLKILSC

D(2) dopamine receptor = D(2) dopamine receptor (Homo sapiens, UniProt P14416); assay: Compound was measured for the binding affinity in homogenated mouse fibroblast (LTK) cells transfected with human Dopamine receptor D2A using [3H]raclopride as radioligand.
D(2) dopamine receptor, sequence (P14416 whole entry): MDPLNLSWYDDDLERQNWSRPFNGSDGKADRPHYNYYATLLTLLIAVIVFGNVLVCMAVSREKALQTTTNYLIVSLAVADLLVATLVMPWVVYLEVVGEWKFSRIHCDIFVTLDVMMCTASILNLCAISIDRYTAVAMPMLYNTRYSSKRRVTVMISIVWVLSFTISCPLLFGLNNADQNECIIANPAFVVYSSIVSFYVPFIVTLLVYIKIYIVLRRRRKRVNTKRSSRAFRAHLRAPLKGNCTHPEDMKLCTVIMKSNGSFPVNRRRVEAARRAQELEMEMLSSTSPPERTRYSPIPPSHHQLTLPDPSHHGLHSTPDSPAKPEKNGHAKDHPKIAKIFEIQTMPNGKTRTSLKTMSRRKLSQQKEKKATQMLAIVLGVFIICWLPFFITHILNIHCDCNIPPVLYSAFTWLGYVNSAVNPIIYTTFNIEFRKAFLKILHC

Row | SMILES | Ki [1] [nM] | Ki (D(3) dopamine receptor) [nM] | Ki (D(2) dopamine receptor) [nM]
1 | O=c1ccc2ccc(OCCCN3CCN(c4ccccc4)CC3)cc2o1 | 5.61 | 49.7 | 16
2 | Cc1c(C)c2ccc(OCCCN3CCN(c4ccccc4)CC3)cc2oc1=O | 5.31 | 44.7 | 5.92
3 | Cc1cc2ccc(OCCCN3CCN(c4ccccc4)CC3)cc2oc1=O | – | 18.9 | 10.8
4 | Cc1cc(=O)oc2cc(OCCCN3CCN(c4ccccc4)CC3)ccc12 | 5.54 | 73.8 | 13.7
